Organism: Rattus norvegicus
Assay: DrugMatrix - Regimen: Daily Repeat
Type: toxicity, organism-based, Sprague-Dawley
Design: regimen Daily Repeat, gender Male, age 6-8 weeks
Settings: in vivo, po, route oral GAVAGE, vehicle .5 % CMC; for BASOPHIL / EOSINOPHIL / ERYTHROCYTE COUNT / HEMATOCRIT / HEMOGLOBIN / LEUKOCYTE COUNT / LYMPHOCYTE / MEAN CORPUSCULAR HEMOGLOBIN / MEAN CORPUSCULAR HEMOGLOBIN CONCENTRATION / MEAN CORPUSCULAR VOLUME / MONOCYTE / NEUTROPHIL / PLATELET COUNT: tissue Blood; for ALANINE AMINOTRANSFERASE / ALBUMIN / ALKALINE PHOSPHATASE / ASPARTATE AMINOTRANSFERASE / BLOOD UREA NITROGEN / CHLORIDE / CHOLESTEROL / CREATINE PHOSPHOKINASE / CREATININE / GLUCOSE / PHOSPHORUS / POTASSIUM / SODIUM / TOTAL BILIRUBIN / TOTAL PROTEIN: tissue Plasma
[1] = 38 mg/kg, 120 h, dose level Low, time 5 day
[2] = 269 mg/kg, 72 h, dose level High, time 3 day
[3] = 269 mg/kg, 120 h, dose level High, time 5 day

SMILES: CCCNC(=O)NS(=O)(=O)c1ccc(Cl)cc1 [CHLORPROPAMIDE]
- BASOPHIL [1]: 0%
- EOSINOPHIL [1]: 0.33%
- ERYTHROCYTE COUNT [1]: 6.28 x10E6/uL
- HEMATOCRIT [1]: 38.47%
- HEMOGLOBIN [1]: 15 G/DL
- LEUKOCYTE COUNT [1]: 16.07 x10E3/uL
- LYMPHOCYTE [1]: 86.67%
- MEAN CORPUSCULAR HEMOGLOBIN [1]: 23.93 pg
- MEAN CORPUSCULAR HEMOGLOBIN CONCENTRATION [1]: 39 G/DL
- MEAN CORPUSCULAR VOLUME [1]: 61.4 fL
- MONOCYTE [1]: 1.67%
- NEUTROPHIL [1]: 11.33%
- PLATELET COUNT [1]: 1190.33 x10E3/uL
- ALANINE AMINOTRANSFERASE [1]: 35.67 u/L
- ALBUMIN [1]: 3.7 G/DL
- ALKALINE PHOSPHATASE [1]: 350 u/L
- ASPARTATE AMINOTRANSFERASE [1]: 61.33 u/L
- BLOOD UREA NITROGEN [1]: 14.33 mg/dL
- CHLORIDE [1]: 106.33 MEQ/L
- CHOLESTEROL [1]: 65 mg/dL
- CREATINE PHOSPHOKINASE [1]: 140.67 u/L
- CREATININE [1]: 0.6 mg/dL
- GLUCOSE [1]: 178 mg/dL
- PHOSPHORUS [1]: 11 mg/dL
- POTASSIUM [1]: 6.43 MEQ/L
- SODIUM [1]: 149.33 MEQ/L
- TOTAL BILIRUBIN [1]: 0.37 mg/dL
- TOTAL PROTEIN [1]: 6.1 G/DL
- BASOPHIL [2]: 0%
- EOSINOPHIL [2]: 0.33%
- ERYTHROCYTE COUNT [2]: 6.04 x10E6/uL
- HEMATOCRIT [2]: 37%
- HEMOGLOBIN [2]: 14.33 G/DL
- LEUKOCYTE COUNT [2]: 8.83 x10E3/uL
- LYMPHOCYTE [2]: 83.67%
- MEAN CORPUSCULAR HEMOGLOBIN [2]: 23.93 pg
- MEAN CORPUSCULAR HEMOGLOBIN CONCENTRATION [2]: 38.77 G/DL
- MEAN CORPUSCULAR VOLUME [2]: 61.6 fL
- MONOCYTE [2]: 2%
- NEUTROPHIL [2]: 14%
- PLATELET COUNT [2]: 1429 x10E3/uL
- ALANINE AMINOTRANSFERASE [2]: 26 u/L
- ALBUMIN [2]: 3.83 G/DL
- ALKALINE PHOSPHATASE [2]: 312 u/L
- ASPARTATE AMINOTRANSFERASE [2]: 48.33 u/L
- BLOOD UREA NITROGEN [2]: 17 mg/dL
- CHLORIDE [2]: 109.33 MEQ/L
- CHOLESTEROL [2]: 73 mg/dL
- CREATINE PHOSPHOKINASE [2]: 142 u/L
- CREATININE [2]: 0.53 mg/dL
- GLUCOSE [2]: 163.33 mg/dL
- PHOSPHORUS [2]: 9.83 mg/dL
- POTASSIUM [2]: 5.8 MEQ/L
- SODIUM [2]: 151.33 MEQ/L
- TOTAL BILIRUBIN [2]: 0.17 mg/dL
- TOTAL PROTEIN [2]: 6.3 G/DL
- BASOPHIL [3]: 0%
- EOSINOPHIL [3]: 0%
- ERYTHROCYTE COUNT [3]: 5.62 x10E6/uL
- HEMATOCRIT [3]: 33.9%
- HEMOGLOBIN [3]: 14.07 G/DL
- LEUKOCYTE COUNT [3]: 10.7 x10E3/uL
- LYMPHOCYTE [3]: 76.67%
- MEAN CORPUSCULAR HEMOGLOBIN [3]: 25.07 pg
- MEAN CORPUSCULAR HEMOGLOBIN CONCENTRATION [3]: 41.53 G/DL
- MEAN CORPUSCULAR VOLUME [3]: 60.37 fL
- MONOCYTE [3]: 2.33%
- NEUTROPHIL [3]: 21%
- PLATELET COUNT [3]: 995.67 x10E3/uL
- ALANINE AMINOTRANSFERASE [3]: 34.67 u/L
- ALBUMIN [3]: 3.7 G/DL
- ALKALINE PHOSPHATASE [3]: 315.33 u/L
- ASPARTATE AMINOTRANSFERASE [3]: 55.33 u/L
- BLOOD UREA NITROGEN [3]: 16.33 mg/dL
- CHLORIDE [3]: 112.33 MEQ/L
- CHOLESTEROL [3]: 71.33 mg/dL
- CREATINE PHOSPHOKINASE [3]: 127.33 u/L
- CREATININE [3]: 0.6 mg/dL
- GLUCOSE [3]: 173.33 mg/dL
- PHOSPHORUS [3]: 10.27 mg/dL
- POTASSIUM [3]: 5.83 MEQ/L
- SODIUM [3]: 155 MEQ/L
- TOTAL BILIRUBIN [3]: 0.23 mg/dL
- TOTAL PROTEIN [3]: 6.1 G/DL

Reference: ChEMBL document CHEMBL3885881, “DrugMatrix”
